Data published in ChEMBL document CHEMBL5584238, “Psammaplin A analogues with modified disulfide bond targeting histone deacetylases: Synthesis and biological evaluation” (Eur J Med Chem, 2024).
The source made the active and inactive calls. The calls are words filed in the database; no cut-off is given here.

Assays:
[1] = tested on: HCT-116; test: Antiproliferative activity against human HCT-116 cells incubated for 48 hrs by MTT assay; format: functional, cell-based; conditions: HCT-116, 48 h
[2] = tested on: HCT-116; test: Induction of apoptosis in human HCT-116 cells assessed as necrotic cells at 0.4 uM incubated for 24 hrs by Annexin V-FITC/PI staining based flow cytometry analysis ( Rvb = 0.24%); format: functional
[3] = Toxicity in mouse assessed as mortality at 5 mg/kg, ip administered every 2 days for 26 days; format: organism-based; conditions: in vivo, 624 h, time 26 day
[4] = tested on: NCI-H1581; test: Antiproliferative activity against human NCI-H1581 cells incubated for 48 hrs by MTT assay; format: functional, cell-based; conditions: NCI-H1581, 48 h
[5] = tested on: HCT-116; test: Induction of cell cycle arrest in human HCT-116 cells assessed as accumulation of cells at S phase at 0.4 uM after 24 hrs by PI staining based flow cytometry analysis (reference value: 52.8%); format: functional
[6] = tested on: HCT-116; test: Induction of cell cycle arrest in human HCT-116 cells assessed as accumulation of cells at G1 phase at 0.4 uM after 24 hrs by PI staining based flow cytometry analysis (reference value: 37.9%); format: functional
[7] = molecular target: Class 1 histone deacetylase (Homo sapiens) (UniProt Q13547+O15379+Q92769+Q9BY41); test: Inhibition of class 1 HDACs in human HCT-116 cells assessed as upregulation of acetylated alpha-H3 level at 1 uM incubated for 24 hrs by Western blotting analysis; format: cell-based
[8] = tested on: EBC-1; test: Antiproliferative activity against human EBC-1 cells incubated for 48 hrs by MTT assay; format: functional, cell-based; conditions: EBC-1, 48 h
[9] = tested on: HCT-116; test: Induction of cell cycle arrest in human HCT-116 cells assessed as accumulation of cells at G2/M phase at 0.4 uM after 24 hrs by PI staining based flow cytometry analysis (reference value: 9.3%); format: functional
[10] = molecular target: T1, Protein deacetylase HDAC6 (Homo sapiens) (UniProt Q9UBN7); test: Inhibition of HDAC6 in human HCT-116 cells assessed as upregulation of acetylated alpha-tubulin level at 1 uM incubated for 24 hrs by Western blotting analysis; format: cell-based
T1 sequence (whole entry): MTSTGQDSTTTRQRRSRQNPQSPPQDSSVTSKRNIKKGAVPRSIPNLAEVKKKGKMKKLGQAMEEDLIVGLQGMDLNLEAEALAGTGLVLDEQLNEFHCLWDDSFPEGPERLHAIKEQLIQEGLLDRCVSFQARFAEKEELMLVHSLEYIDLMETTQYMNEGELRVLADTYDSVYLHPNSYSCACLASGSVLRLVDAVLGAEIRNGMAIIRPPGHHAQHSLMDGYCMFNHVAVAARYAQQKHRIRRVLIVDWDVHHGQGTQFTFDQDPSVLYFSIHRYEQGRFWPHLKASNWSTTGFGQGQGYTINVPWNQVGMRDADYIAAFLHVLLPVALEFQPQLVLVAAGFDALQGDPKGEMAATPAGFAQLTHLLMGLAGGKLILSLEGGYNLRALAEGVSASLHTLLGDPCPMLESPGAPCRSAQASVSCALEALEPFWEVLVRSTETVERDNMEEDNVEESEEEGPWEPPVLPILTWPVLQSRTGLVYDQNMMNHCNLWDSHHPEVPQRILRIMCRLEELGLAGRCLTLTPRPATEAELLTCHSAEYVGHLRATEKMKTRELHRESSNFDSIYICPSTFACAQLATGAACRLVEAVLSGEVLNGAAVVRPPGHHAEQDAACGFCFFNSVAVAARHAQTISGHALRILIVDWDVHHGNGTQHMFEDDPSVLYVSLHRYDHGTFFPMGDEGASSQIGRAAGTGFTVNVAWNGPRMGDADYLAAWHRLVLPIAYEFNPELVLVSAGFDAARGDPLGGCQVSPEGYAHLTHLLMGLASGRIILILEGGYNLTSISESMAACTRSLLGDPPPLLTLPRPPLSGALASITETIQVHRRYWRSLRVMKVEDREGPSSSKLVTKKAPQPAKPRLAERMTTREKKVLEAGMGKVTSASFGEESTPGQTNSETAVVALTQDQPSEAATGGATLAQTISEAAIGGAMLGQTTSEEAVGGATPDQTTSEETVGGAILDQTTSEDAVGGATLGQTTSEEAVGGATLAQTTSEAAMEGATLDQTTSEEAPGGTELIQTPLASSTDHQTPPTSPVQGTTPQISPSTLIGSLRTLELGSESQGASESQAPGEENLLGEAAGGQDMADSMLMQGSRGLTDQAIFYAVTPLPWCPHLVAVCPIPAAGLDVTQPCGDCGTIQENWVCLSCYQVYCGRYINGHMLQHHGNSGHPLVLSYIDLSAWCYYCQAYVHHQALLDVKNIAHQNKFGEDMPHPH

Class 1 histone deacetylase (Homo sapiens), sequence (O15379 whole entry, looked up): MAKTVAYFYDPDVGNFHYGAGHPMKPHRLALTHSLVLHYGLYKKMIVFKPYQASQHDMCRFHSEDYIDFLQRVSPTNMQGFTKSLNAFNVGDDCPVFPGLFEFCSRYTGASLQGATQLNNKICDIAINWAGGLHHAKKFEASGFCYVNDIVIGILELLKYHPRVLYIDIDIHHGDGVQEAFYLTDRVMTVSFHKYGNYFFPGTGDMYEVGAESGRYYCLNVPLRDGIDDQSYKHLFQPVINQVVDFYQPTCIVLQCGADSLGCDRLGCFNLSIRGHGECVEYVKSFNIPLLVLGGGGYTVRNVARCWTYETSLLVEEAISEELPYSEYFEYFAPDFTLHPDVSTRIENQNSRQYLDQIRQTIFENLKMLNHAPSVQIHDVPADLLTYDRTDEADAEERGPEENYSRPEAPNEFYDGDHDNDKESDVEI
Class 1 histone deacetylase (Homo sapiens), sequence (Q13547 whole entry, looked up): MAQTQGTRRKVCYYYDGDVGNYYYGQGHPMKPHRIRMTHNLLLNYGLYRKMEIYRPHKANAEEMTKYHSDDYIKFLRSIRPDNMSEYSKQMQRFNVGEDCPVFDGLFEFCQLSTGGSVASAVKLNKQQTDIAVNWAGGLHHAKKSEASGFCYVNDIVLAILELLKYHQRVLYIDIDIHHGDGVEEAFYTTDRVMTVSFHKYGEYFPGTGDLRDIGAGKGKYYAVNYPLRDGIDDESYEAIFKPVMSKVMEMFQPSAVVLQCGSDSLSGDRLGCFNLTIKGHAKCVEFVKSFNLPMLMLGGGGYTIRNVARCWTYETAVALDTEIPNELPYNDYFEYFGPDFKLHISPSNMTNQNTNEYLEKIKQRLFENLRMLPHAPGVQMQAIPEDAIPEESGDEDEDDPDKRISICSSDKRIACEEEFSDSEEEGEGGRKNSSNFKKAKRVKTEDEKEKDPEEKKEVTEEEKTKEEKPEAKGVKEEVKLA
Class 1 histone deacetylase (Homo sapiens), sequence (Q92769 whole entry, looked up): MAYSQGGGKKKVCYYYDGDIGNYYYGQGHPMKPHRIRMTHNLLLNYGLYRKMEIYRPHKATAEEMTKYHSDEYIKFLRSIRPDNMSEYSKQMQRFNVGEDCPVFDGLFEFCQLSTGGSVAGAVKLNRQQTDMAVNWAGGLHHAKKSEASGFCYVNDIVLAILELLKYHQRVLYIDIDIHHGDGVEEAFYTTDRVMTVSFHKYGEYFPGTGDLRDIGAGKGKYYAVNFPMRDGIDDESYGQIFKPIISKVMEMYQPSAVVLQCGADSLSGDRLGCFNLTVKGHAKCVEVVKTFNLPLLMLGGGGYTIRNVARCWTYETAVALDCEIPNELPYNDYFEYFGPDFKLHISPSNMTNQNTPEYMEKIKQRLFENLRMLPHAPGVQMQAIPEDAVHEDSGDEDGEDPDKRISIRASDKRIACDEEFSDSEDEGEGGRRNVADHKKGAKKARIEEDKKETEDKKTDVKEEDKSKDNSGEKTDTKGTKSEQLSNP
Class 1 histone deacetylase (Homo sapiens), sequence (Q9BY41 whole entry, looked up): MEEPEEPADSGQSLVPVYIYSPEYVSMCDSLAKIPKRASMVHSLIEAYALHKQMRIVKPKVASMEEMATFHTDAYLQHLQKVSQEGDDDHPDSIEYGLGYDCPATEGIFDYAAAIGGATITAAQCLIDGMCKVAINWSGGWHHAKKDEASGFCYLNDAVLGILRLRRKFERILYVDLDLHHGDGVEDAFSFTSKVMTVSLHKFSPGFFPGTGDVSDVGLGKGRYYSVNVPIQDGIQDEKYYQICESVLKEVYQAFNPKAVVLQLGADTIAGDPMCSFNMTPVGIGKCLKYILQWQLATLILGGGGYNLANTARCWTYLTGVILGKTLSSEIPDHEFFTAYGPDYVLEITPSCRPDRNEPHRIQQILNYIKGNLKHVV

IC50 [4]	inhibition [7]	inhibition [10]	SMILES	IC50 [1]	Activity [2]	Activity [3]	Activity [5]	Activity [6]	IC50 [8]	Activity [9]
–	–	–	O=C(NCC[Se][Se]CCNC(=O)/C(Cc1ccc(O)c(Br)c1)=N/O)/C(Cc1ccc(O)c(Br)c1)=N/O	0.24 µM	0.082%	Toxic	–	–	–	–
0.26 µM	Active	Active	O=C(NCC[Se][Se]CCNC(=O)/C(Cc1ccsc1)=N/O)/C(Cc1ccsc1)=N/O	0.21 µM	0.057%	–	39.56%	7.85%	0.64 µM	52.59%
